Experimental data: patent publication US20220087987A1, “A METHOD FOR TREATING SWI/SNF COMPLEX-DEFICIENT CANCERS COMPRISING GLUTATHIONE (GSH) METABOLIC PATHWAY INHIBITOR” (National Cancer Center, priority 2018, published 2022)
Counter-ions that a name gives are not always drawn.

Legend:
Type in all cases: cell-based, human
[1] = system: p53, p21; assay: Immunoblot for p53 and p21; details: ARID1A-WT and ARID1A-KO HCT116; 50 μM PRIMA-1, 50 μM APR-246, 10 μM Nutlin3a, 16 hrs
Description: The soluble fractions of whole-cell lysates were mixed with SDS sample buffer. […] The soluble fractions were mixed with SDS sample buffer. Tumor samples derived from xenografts were weighed and washed with PBS. […] The homogenized tumor samples were diluted in an additional 450 μl of NETN420 buffer, incubated for 30 min on ice, and centrifuged at 4° C. for 10 min at 15,000 rpm. The soluble fractions of whole-cell lysates were mixed with SDS sample buffer. Proteins were separated by SDS-PAGE, transferred to PVDF membranes, and immunoblotted with the indicated antibodies. β-actin was used as a loading control. Membranes were blocked overnight at 4° C. or for 1 hr at 25° C. with PVDF Blocking Reagent for Can Get Signal (TOYOBO) and then probed with Can Get Signal Solution 1 (TOYOBO) containing primary antibodies. After washing with TBS containing 0.1% Tween 20, the membranes were incubated with TBS containing 0.1% Tween 20, 1% BSA, and horseradish peroxidase-conjugated anti-mouse or anti-rabbit secondary antibodies, and visualized using Western Lightning ECL Pro (Perkin Elmer). Chemiluminescence signals were measured using LAS-3000 Imaging System (Fujifilm). Signal intensities were measured using Multi Gauge software.

[2] = system: ARID1A-proficient and ARID1A-deficient cancer cell lines; assay: Cell viability and colony formation in cancer cell line panel
[3] = system: GSH; assay: Detection of GSH in cells (GSH/GSSG-Glo, GSH-Glo); details: ARID1A-deficient versus ARID1A-proficient ovarian and other cancer cells
[4] = system: ROS; assay: Detection of ROS in cells (ROS-Glo); details: ARID1A-deficient versus ARID1A-proficient ovarian and other cancer cells
Description: GSH, ROS and apoptosis were detected using the GSH/GSSG-Glo Assay (Promega) and/or the GSH-Glo Assay (Promega), the ROS-Glo Assay (Promega), and the Caspase-Glo 3/7 Assay, respectively. To measure levels of GSH, ROS and apoptosis after drug treatment, cells were trypsinized, counted, reseeded at the specified density in 96-well plates and exposed to the indicated concentrations of drugs. After 16-48 hrs, luminescence was measured using an Envision Multi-label plate reader (PerkinElmer). To measure levels of GSH and ROS after siRNA-mediated knockdown, cell lines were transfected with siRNAs (25 nM) using Lipofectamine RNAiMAX. After 48 hrs, cells were trypsinized and transfected repeatedly with siRNAs (25 nM) using Lipofectamine RNAiMAX. Cells were trypsinized after a further 48 hrs, counted, and reseeded at the specified density in 96-well plates. After 72-120 hrs, luminescence was measured using an Envision Multi-label plate reader (PerkinElmer). Cell viability was also measured using the CellTiter-Glo Luminescent Cell Viability Assay (Promega). Caspase-3/7, GSH, and ROS levels were normalized against cell viability. The GSH/GSSG ratio was calculated as the GSH-GSSG signal divided by the GSSG/2 signal. Relative signal ratios in treated samples were normalized against untreated samples.

[5] = Drug library screen, cell viability (CellTiter-Glo); details: human; HCT116 ARID1A-WT; 10 μM for 5 days; relative to cells treated with solvent (DMSO); read-out: Cell viability, WT
Outline: (§1)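 Luminescent ATP read-out (CellTiter-Glo) at day 5, normalised to solvent (DMSO) controls, in paired HCT116 lines, ARID1A knockout versus wild type. Candidates selected where KO cells fell below 40% viability and WT cells stayed above 80%.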

[6] = system: ARID1A-KO HCT116 cells; assay: as above; details: Homo sapiens, HCT-116, 120 h; HCT116 ARID1A-KO; 10 μM for 5 days; relative to cells treated with solvent (DMSO); read-out: Cell viability, KO
Outline: as §1

Row | SMILES | viability at 5 days, 10 μM [5] | viability at 10 µM [6] | also measured
1 | COc1ccc(C2=N[C@@H](c3ccc(Cl)cc3)[C@@H](c3ccc(Cl)cc3)N2C(=O)N2CCNC(=O)C2)c(OC(C)C)c1 [Nutlin3a] |  |  | expression of p53 and p21 [1]: increased the p53 level and upregulated the p53 target p21
2 | CC(=O)OC[C@H]1O[C@@H]([S-])[C@H](OC(C)=O)[C@@H](OC(C)=O)[C@@H]1OC(C)=O.CCP(CC)CC.[Au+] [auranofin] |  |  | sensitivity of ARID1A-deficient versus ARID1A-proficient cancer cells ([2]; four ARID1A-proficient and six ARID1A-deficient cell lines, cell viability, colony formation): more sensitive to the TrxR inhibitor auranofin than ARID1A-proficient cells; GSH level in cancer cell lines [3]: more evident in ARID1A-deficient cancer cells; ROS level in cancer cell lines [4]: more evident in ARID1A-deficient cancer cells
3 | CC(C)C[C@H](NC(=O)[C@H](Cc1ccccc1)NC(=O)c1cnccn1)B(O)O [bortezomib] | 3.06% | 5.81% | 
4 | CN(C)CCCN1c2ccccc2Sc2ccc(Cl)cc21 [chlorpromazine hydrochloride] | 7.83% | 15.6% | 
5 | C[C@@H](Oc1cc(-c2cnn(C3CCNCC3)c2)cnc1N)c1c(Cl)ccc(F)c1Cl [crizotinib] | 2.29% | 5.88% | 
6 | CC1=C2C[C@H]3[C@@H](CC=C4C[C@@H](O)CC[C@@]43C)[C@@H]2CC[C@]12O[C@@H]1C[C@H](C)CN[C@H]1[C@H]2C [cyclopamine] |  | 86.7% | viability [5]: 49.3%
7 | Cc1nc(Nc2ncc(C(=O)Nc3c(C)cccc3Cl)s2)cc(N2CCN(CCO)CC2)n1 [dasatinib] | 33.5% | 37.8% | 
8 | CNCCCN1c2ccccc2CCc2ccccc21 [desipramine hydrochloride] | 34.6% | 63.1% | 
9 | C#Cc1cccc(Nc2ncnc3cc(OCCOC)c(OCCOC)cc23)c1 [erlotinib] | 48.1% | 48.6% | 
10 | CO[C@H]1C[C@@H]2CC[C@@H](C)[C@@](O)(O2)C(=O)C(=O)N2CCCC[C@H]2C(=O)O[C@H]([C@H](C)C[C@@H]2CC[C@@H](OCCO)[C@H](OC)C2)CC(=O)[C@H](C)/C=C(\C)[C@@H](O)[C@@H](OC)C(=O)[C@H](C)C[C@H](C)/C=C/C=C/C=C/1C [everolimus] | 77.4% | 77.1% | 
11 | COc1cc2ncnc(Nc3ccc(F)c(Cl)c3)c2cc1OCCCN1CCOCC1 [gefitinib] | 54.5% | 72.4% | 
12 | Cc1ccc(NC(=O)c2ccc(CN3CCN(C)CC3)cc2)cc1Nc1nccc(-c2cccnc2)n1 [imatinib mesylate] | 37.2% | 55.4% | 
13 | O=C1NC(=O)c2c1c1c3ccccc3[nH]c1n1cncc21 [isogranulatimide] | 118% | 151% | 
14 | CS(=O)(=O)CCNCc1ccc(-c2ccc3ncnc(Nc4ccc(OCc5cccc(F)c5)c(Cl)c4)c3c2)o1 [lapatinib] | 52.7% | 78.4% | 
15 | Nc1cccc2c1CN(C1CCC(=O)NC1=O)C2=O (stereo not shown) [lenalidomide] | 91.1% | 112% | 
16 | Cc1cn(-c2cc(NC(=O)c3ccc(C)c(Nc4nccc(-c5cccnc5)n4)c3)cc(C(F)(F)F)c2)cn1 [nilotinib] | 85.8% | 91.6% | 
17 | CCCCCCCCCCC[C@@H](C[C@@H]1OC(=O)[C@H]1CCCCCC)OC(=O)[C@H](CC(C)C)NC=O [orlistat] | 84.6% | 86.1% | 
18 | Cc1ccc(Nc2nccc(N(C)c3ccc4c(C)n(C)nc4c3)n2)cc1S(N)(=O)=O [pazopanib] | 19.8% | 39.8% | 
19 | CNC(=O)c1cc(Oc2ccc(NC(=O)Nc3ccc(Cl)c(C(F)(F)F)c3)cc2)ccn1 [sorafenib] | 61.4% | 70.4% | 
20 | O=C(O)c1cc(/N=N/c2ccc(S(=O)(=O)Nc3ccccn3)cc2)ccc1O [sulfasalazine] |  |  | sensitivity of ARID1A-deficient TOV21G versus ARID1A-proficient RMG-I ovarian cancer cells ([2]; cell viability after 3 days): more sensitive than ARID1A-proficient RMG-I ovarian cancer cells
21 | CCN(CC)CCNC(=O)c1c(C)[nH]c(/C=C2\C(=O)Nc3ccc(F)cc32)c1C [sunitinib malate] | 3.23% | 5.95% | 
22 | CC(C)(C)c1cc(O)ccc1O [t-Butylhydroquinone (BHQ), t-Butylhydroquinone] | 95.4% | 96.6% | 
23 | CC1(C)CCC(C)(C)c2cc(NC(=O)c3ccc(C(=O)O)cc3)ccc21 [tamibarotene] | 77.3% | 101% | 
24 | Cn1nnc2c(C(N)=O)ncn2c1=O [temozolomide] | 84.4% | 104% | 
25 | CO[C@H]1C[C@@H]2CC[C@@H](C)[C@@](O)(O2)C(=O)C(=O)N2CCCC[C@H]2C(=O)O[C@H]([C@H](C)C[C@@H]2CC[C@@H](OC(=O)C(C)(CO)CO)[C@H](OC)C2)CC(=O)[C@H](C)/C=C(\C)[C@@H](O)[C@@H](OC)C(=O)[C@H](C)C[C@H](C)/C=C/C=C/C=C/1C [temsirolimus] | 82.1% | 75% | 
26 | O=C1CCC(N2C(=O)c3ccccc3C2=O)C(=O)N1 (stereo not shown) [thalidomide] | 95% | 107% | 
27 | CC1=C(/C=C/C(C)=C/C=C/C(C)=C/C(=O)O)C(C)(C)CCC1 [tretinoin] | 77.7% | 96.3% | 
28 | O=C(CCCCCCC(=O)Nc1ccccc1)NO [vorinostat] | 2.82% | 6.02% | 
